Data as given in ChEMBL document CHEMBL6182948 (J Med Chem, 2025).
pIC50: −log10 of the molar value.

How the values were obtained:
CYP2C8 = biological target: T1, CYP2C8 (Homo sapiens, UniProt P10632); assay: Inhibition of CYP2C8 in human liver microsome at 10 uM pre-incubated with compound for 5 mins followed NADPH addition and measured after 5 mins by LC-MS/MS analysis relative to control; assay type: ADME; conditions: liver microsomes, time 10 min
T1 sequence (P10632 whole entry): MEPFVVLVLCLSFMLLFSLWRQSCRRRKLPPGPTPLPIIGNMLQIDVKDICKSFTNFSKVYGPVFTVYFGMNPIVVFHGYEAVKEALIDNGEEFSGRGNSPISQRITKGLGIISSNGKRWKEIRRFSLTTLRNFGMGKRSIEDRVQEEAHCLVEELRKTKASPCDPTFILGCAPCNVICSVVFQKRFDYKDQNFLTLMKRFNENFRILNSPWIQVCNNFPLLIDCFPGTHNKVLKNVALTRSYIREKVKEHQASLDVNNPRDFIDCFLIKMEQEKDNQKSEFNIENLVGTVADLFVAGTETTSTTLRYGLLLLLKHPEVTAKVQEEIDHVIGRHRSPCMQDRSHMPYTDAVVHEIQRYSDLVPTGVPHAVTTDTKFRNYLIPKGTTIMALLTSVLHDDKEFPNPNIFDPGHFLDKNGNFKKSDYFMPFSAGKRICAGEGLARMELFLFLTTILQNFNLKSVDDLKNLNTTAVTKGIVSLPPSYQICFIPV

A549/TR [1] = assay: Inhibition of cell migration in human A549/Taxol cells assessed as wound closure at 5 uM measured after 24 hrs by scratch-wound healing assay relative to control; assay type: functional; design: scale not given: the % may be the effect or the level left
Cytochrome P450 1A2 = biological target: T2, Cytochrome P450 1A2 (Homo sapiens, UniProt P05177); assay: Inhibition of human recombinant CYP1A2 using 7-ethoxyresorufin as substrate incubated under dark condition for 45 mins in presence of NADPH by EROD fluorescence assay; assay type: ADME
T2 sequence (P05177 whole entry): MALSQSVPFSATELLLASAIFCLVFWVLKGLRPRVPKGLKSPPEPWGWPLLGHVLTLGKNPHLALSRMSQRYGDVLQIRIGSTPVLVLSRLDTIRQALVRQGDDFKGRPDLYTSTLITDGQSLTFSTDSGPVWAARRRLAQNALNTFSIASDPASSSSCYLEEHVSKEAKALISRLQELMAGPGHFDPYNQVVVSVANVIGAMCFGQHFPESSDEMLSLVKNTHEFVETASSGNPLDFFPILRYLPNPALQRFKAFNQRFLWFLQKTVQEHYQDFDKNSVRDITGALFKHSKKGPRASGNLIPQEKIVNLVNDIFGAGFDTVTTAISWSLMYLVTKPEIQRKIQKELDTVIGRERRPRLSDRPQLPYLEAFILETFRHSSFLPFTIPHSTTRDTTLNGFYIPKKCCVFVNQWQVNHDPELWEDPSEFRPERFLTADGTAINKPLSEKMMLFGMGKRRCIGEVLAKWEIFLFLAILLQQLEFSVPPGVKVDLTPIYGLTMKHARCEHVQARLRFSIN

A549/TR [2] = assay: Inhibition of cell invasion in human A549/Taxol cells assessed as invasive cells at 5 uM incubated for 24 hrs by transwell invasion assay relative to control; assay type: functional; design: scale not given: the % may be the effect or the level left
[3] = Cytotoxicity against HUVEC assessed as inhibition of cell viability incubated for 48 hrs by CellTiter Glo assay; assay type: toxicity, cell-based; conditions: human, HUVEC cells
A549 = assay: Antiproliferative against human A549 cells assessed as inhibition of cell viability incubated for 48 hrs by CCK-8 assay; assay type: functional, cell-based; conditions: A549, 48 h
[4] = Cytotoxicity against human BEAS-2B cells assessed as inhibition of cell viability incubated for 48 hrs by CCK-8 assay; assay type: toxicity, cell-based
CYP1B1 = biological target: T3, CYP1B1 (Homo sapiens, UniProt Q16678); assay: Inhibition of human recombinant CYP1B1 using 7-ethoxyresorufin as substrate at 100 uM incubated under dark condition for 30 mins in presence of NADPH by EROD fluorescence assay relative to control; assay type: ADME; conditions: recombinant CYP1B1, probe 7-ethoxyresorufin
T3 sequence (Q16678 whole entry): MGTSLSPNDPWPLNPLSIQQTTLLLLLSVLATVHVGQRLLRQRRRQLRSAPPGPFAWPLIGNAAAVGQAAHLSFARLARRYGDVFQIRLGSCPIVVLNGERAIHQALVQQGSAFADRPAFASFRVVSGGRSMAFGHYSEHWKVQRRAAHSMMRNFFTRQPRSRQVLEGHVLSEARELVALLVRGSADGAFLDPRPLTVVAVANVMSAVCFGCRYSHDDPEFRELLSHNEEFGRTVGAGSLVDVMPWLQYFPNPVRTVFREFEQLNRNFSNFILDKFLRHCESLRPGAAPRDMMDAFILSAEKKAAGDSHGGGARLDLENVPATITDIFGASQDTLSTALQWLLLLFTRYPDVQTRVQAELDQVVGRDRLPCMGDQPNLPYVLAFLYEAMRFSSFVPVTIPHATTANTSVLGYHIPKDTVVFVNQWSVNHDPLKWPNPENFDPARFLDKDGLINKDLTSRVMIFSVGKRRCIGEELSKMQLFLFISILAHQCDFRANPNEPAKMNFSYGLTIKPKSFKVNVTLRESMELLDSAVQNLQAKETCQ

CYP2C19 = CYP2C19 (Homo sapiens, UniProt P33261); assay: Inhibition of CYP2C19 in human liver microsome at 3 uM pre-incubated with compound for 5 mins followed NADPH addition and measured after 30 mins by LC-MS/MS analysis relative to control; assay type: ADME; conditions: liver microsomes, time 35 min
CYP2D6 = CYP2D6 (Homo sapiens, UniProt P10635); assay: Inhibition of CYP2D6 in human liver microsome at 3 uM pre-incubated with compound for 5 mins followed NADPH addition and measured after 10 mins by LC-MS/MS analysis relative to control; conditions: liver microsomes
Homo sapiens [5] = organism: Homo sapiens; assay: Selectivity index, ratio of IC50 for human recombinant CYP1A2 to IC50 for human recombinant CYP1B1 using 7-ethoxyresorufin as substrate
Cytochrome P450 1B1 = biological target: T4, Cytochrome P450 1B1 (Homo sapiens, UniProt Q16678); assay: Inhibition of human recombinant CYP1B1 using 7-ethoxyresorufin as substrate incubated under dark condition for 30 mins in presence of NADPH by EROD fluorescence assay; assay type: ADME
T4 sequence (Q16678 whole entry): T3 sequence (Q16678 whole entry)

Cytochrome P450 1A1 = biological target: T5, Cytochrome P450 1A1 (Homo sapiens, UniProt P04798); assay: Inhibition of human recombinant CYP1A1 using 7-ethoxyresorufin as substrate incubated under dark condition for 15 mins in presence of NADPH by EROD fluorescence assay; assay type: ADME
T5 sequence (P04798 whole entry): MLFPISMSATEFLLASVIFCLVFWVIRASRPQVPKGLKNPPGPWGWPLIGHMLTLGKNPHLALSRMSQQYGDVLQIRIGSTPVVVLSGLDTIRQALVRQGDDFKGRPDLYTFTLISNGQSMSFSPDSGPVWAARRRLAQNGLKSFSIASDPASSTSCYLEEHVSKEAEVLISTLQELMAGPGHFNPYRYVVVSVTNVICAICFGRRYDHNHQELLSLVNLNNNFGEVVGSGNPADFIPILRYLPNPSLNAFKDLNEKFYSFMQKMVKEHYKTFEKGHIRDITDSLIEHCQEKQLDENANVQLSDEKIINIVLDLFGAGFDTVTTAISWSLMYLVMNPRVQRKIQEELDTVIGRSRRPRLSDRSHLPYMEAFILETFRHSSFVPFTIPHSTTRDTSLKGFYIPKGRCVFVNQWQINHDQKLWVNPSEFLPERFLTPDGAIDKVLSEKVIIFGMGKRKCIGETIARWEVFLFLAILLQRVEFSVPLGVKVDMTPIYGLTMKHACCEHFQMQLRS

Homo sapiens [6] = organism: Homo sapiens; assay: Selectivity index, ratio of IC50 for human recombinant CYP1A1 to IC50 for human recombinant CYP1B1 using 7-ethoxyresorufin as substrate
[7] = Stability in human plasma assessed as compound remaining at 100 uM measured after 120 mins by LC-MS/MS analysis; assay type: ADME, cell-free; conditions: read-out: Stability
[8] = Stability in human plasma assessed as compound remaining at 100 uM measured after 30 mins by LC-MS/MS analysis; assay type: ADME, cell-free; conditions: read-out: Stability
[9] = Stability in human plasma assessed as compound remaining at 100 uM measured after 15 mins by LC-MS/MS analysis; assay type: ADME, cell-free; conditions: read-out: Stability
[10] = Stability in human plasma assessed as compound remaining at 100 uM measured after 60 mins by LC-MS/MS analysis; assay type: ADME, cell-free; conditions: read-out: Stability
[11] = Stability in human plasma assessed as compound remaining at 100 uM measured after 5 mins by LC-MS/MS analysis; assay type: ADME, cell-free; conditions: read-out: Stability
CYP2C9 = CYP2C9 (Homo sapiens, UniProt P11712); assay: Inhibition of CYP2C9 in human liver microsome at 3 uM pre-incubated with compound for 5 mins followed NADPH addition and measured after 10 mins by LC-MS/MS analysis relative to control; conditions: liver microsomes
A549/TR [12] = assay: Antiproliferative activity against human A549/Taxol cells assessed inhibition of cell viability incubated for 48 hrs by CCK-8 assay; assay type: functional, cell-based
[13] = Selectivity ratio of IC50 for antiproliferative activity against human A549/Taxol cells to IC50 for antiproliferative activity against human A549 cells; assay type: functional
[14] = Metabolic stability in liver microsome (unknown origin) assessed as intrinsic clearance at 0.5 mg/mL measured up to 60 mins by LC-MS/MS analysis; assay type: ADME; conditions: human, liver microsomes, read-out: CLH
[15] = Metabolic stability in liver microsomes (unknown origin) assessed as half life at 0.5 mg/ml measured up to 60 mins by LC-MS/MS analysis; assay type: ADME, Microsome; conditions: human

Chain of CYP2C9 (P11712 whole entry): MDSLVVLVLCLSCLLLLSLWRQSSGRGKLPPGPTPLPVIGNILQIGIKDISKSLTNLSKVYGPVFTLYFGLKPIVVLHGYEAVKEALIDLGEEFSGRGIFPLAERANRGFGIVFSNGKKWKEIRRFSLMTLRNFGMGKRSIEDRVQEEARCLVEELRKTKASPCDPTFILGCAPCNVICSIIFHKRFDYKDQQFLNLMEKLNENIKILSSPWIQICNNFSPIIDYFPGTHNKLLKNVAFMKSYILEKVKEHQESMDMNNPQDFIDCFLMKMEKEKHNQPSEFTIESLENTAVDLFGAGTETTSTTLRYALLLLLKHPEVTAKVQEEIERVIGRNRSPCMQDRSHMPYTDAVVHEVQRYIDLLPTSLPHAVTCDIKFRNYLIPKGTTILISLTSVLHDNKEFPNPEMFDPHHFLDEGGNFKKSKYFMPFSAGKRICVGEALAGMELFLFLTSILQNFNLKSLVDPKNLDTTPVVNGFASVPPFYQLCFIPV
Chain of CYP2D6 (P10635 whole entry): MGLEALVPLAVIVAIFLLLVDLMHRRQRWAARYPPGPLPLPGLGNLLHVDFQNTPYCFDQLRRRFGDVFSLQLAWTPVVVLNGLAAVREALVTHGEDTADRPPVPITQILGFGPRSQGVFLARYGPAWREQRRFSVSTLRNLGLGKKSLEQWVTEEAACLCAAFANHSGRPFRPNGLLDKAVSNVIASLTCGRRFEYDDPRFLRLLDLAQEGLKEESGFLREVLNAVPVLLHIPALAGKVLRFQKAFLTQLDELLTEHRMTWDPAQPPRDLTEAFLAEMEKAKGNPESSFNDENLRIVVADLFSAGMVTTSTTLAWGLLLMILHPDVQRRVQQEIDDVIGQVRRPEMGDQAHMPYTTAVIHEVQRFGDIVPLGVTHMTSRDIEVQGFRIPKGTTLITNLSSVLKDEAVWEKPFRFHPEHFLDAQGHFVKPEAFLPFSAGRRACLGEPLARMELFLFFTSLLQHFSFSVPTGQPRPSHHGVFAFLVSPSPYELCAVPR
Chain of CYP2C19 (P33261 whole entry): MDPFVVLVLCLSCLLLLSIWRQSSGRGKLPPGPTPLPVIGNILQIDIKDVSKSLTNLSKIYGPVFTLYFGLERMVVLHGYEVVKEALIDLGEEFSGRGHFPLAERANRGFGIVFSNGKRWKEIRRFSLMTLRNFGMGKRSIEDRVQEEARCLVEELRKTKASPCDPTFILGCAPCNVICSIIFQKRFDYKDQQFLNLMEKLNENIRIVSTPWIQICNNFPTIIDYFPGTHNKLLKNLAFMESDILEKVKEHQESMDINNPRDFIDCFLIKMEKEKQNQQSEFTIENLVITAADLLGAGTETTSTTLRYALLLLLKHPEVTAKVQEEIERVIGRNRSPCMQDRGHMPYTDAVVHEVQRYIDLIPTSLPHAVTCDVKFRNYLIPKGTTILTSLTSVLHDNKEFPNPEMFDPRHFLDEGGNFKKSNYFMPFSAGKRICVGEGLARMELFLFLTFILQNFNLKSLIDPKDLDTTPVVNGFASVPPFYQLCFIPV

SMILES	pIC50 (Cytochrome P450 1A2)	inhibition at 0.5 h, 100 µM (CYP1B1) [%]	Ratio IC50 (Homo sapiens [5])	pIC50 (Cytochrome P450 1B1)	pIC50 (Cytochrome P450 1A1)	Ratio IC50 (Homo sapiens [6])	other results
O=c1c(O)c(-c2ccc(O)c(O)c2)oc2cc(O)cc(O)c12 [QUERCETIN]							inhibition at 5 min, 10 µM (CYP2C8): 77.2%
COc1cc(/C=C/c2ccc(OC)cc2OC)cc(OC)c1	5.71	103					Activity (A549/TR [1]): 12.6%; Activity (A549/TR [2]): 40.2%; IC50 at 48 h [3]: > 40000 nM; pIC50 (A549): 5.10; IC50 at 48 h [4]: 2900 nM
CCC1(c2ccccc2)NC(=O)N(Cc2ccccc2)C1=O (centres undefined)							inhibition at 0.5 h, 3 µM (CYP2C19): 89.8%
C=C[C@H]1C[N@@]2CC[C@H]1C[C@@H]2[C@@H](O)c1ccnc2ccc(OC)cc12 [QUINIDINE]							inhibition at 10 min, 3 µM (CYP2D6): 89.3%
O=C(Nc1ccc(F)cc1)c1nc(-c2ccccc2)cs1	6.65	86.7	9.2	7.62	6.55	11.7	
CC(C)[N+](C)(CCOC(=O)C1c2ccccc2Oc2ccccc21)C(C)C [PROPANTHELINE BROMIDE]							remaining at 2 h, 100 µM [7]: 1.7%; remaining at 0.5 h, 100 µM [8]: 41.3%; remaining at 0.25 h, 100 µM [9]: 66.5%; remaining at 1 h, 100 µM [10]: 11.6%; remaining at 5 min, 100 µM [11]: 90.7%
O=C(Nc1ccc(OC(F)F)cc1)c1nc(-c2ccccc2)cs1	6.17	100	2610	9.59	6.68	808	
O=C(Nc1ccc(C(F)(F)F)cc1)c1nc(-c2ccccc2)cs1	6.35	99.5	952	9.33	6.35	951	
COc1cc(NC(=O)c2nc(-c3ccccc3)cs2)cc(OC)c1	6.14	87.4	156	8.33	6.21	134	
Nc1ccc(S(=O)(=O)Nc2ccnn2-c2ccccc2)cc1 [SULFAPHENAZOLE]							inhibition at 10 min, 3 µM (CYP2C9): 79%
COc1cc(Cl)cc(NC(=O)c2nc(-c3ccccc3)cs2)c1	6.21	96.5	35.9	7.76	6.64	13.3	
CC(=O)O[C@H]1C(=O)[C@@]2(C)[C@H]([C@H](OC(=O)c3ccccc3)[C@]3(O)C[C@H](OC(=O)[C@H](O)[C@@H](NC(=O)c4ccccc4)c4ccccc4)C(C)=C1C3(C)C)[C@]1(OC(C)=O)CO[C@@H]1C[C@@H]2O [PACLITAXEL]							pIC50 (A549/TR [12]): 5.08; pIC50 (A549): 7.50; Ratio IC50 [13]: 263.8
COc1ccc(NC(=O)c2nc(-c3ccccc3)cs2)cc1	6.05	95	80.2	7.95	6.33	42	
O=C(O)Cc1ccccc1Nc1c(Cl)cccc1Cl [DICLOFENAC]							CLint scaled [14]: 226 mL/min/kg; half-life [15]: 5.5 min
O=C(Nc1ccc(C(F)F)cc1)c1nc(-c2ccccc2)cs1	5.97	99.9	447	8.62	5.76	721	
O=C(Nc1cc(Cl)cc(Cl)c1)c1nc(-c2ccccc2)cs1	6.15	102	212	8.47	6.65	66.2	
